Patent US5840895A, “Triazole intermediates for tricyclic benzazepine and benzothiazepine derivatives” (Meiji Seika Kabushiki Kaisha, priority 1993, dated 1998)
Like-named read-outs stand apart in the source and are kept apart here.

How the values were obtained:
[1] = tested on: histamine releasing reaction; test: Test of suppressing histamine releasing reaction (abdominal cavity cells of rats sensitised with anti-DNP-As serum, stimulated with DNP-As); type: cell-based, rat (male Wister); settings: Rattus norvegicus; cells 10^5 cell/ml stimulated with 1 μg/ml DNP-As; test compounds 10^-5 -10^-10 M; read-out: IC50 (suppression of histamine releasing reaction)
Description: Test of suppressing histamine releasing reaction
Rat anti-dinitrophenylated ascaris protein (referred to hereinafter as DNP-As) serum was prepared according to the method described by Tada, T. and Okumura, K., J. Immun., 106 (4), 1971. Briefly, 1×10^10 of inviable pertussis and 1 mg of DNP-As were administered subcutaneously to the paw of female Brown Norway rats having a body weight of 200 g. After five days, 0.5 mg of DNP-As was further administered intramuscularly to the rear of the animals. Blood samples were taken after three days of the administration to prepare anti-serum.
A 1 ml portion of the serum diluted four times with physiological saline was administered intraperitoneally to male Wister rats. After two days, abdominal cavity was rinsed with phosphate buffer to recover the cells within the abdominal cavity. After the cell concentration was adjusted to 10^5 cell/ml, the cells were stimulated with 1 μg/ml of DNP-As. The amount of histamine released into the supernatant was measured according to the method described by Shore, P. A., Burkhalter, A. H. and Chon, V. H. Jr., J. Pharm. Exp. Ther., 127, 182-186 (1959).
A dose for suppressing 50% of the histamine releasing reaction, i.e., IC50 value, was calculated from the amounts of histamine released in the group treated with the test compounds in the molar concentrations (M) of 10^-5 -10^-10 and in the control group. The IC50 value as the suppressing effect of the drugs is shown in Table 6 with the IC50 value of sodium chromoglycic acid selected as the control compound.

[2] = tested on: allergic edema reaction at paw; test: Test for suppressing immediate and delayed allergic reaction (allergic edema reaction at paw, DNP-OA); type: in vivo, rat (male Wister); settings: Rattus norvegicus, oral; for inhibition in vivo at 30 mg/kg: dose: 30 mg/kg of body weight
Description: Test for suppressing immediate and delayed allergic reaction
1×10^10 of inviable pertussis and 1 mg of dinitrophenylated ovalbumin (DNP-OA) were administered subcutaneously to the three paws except the right hind paw of male Wister rats having a body weight of 200 g. After 10 days, 5 μg of DNP-OA was further administered subcutaneously to the right hind paw of the animals to induce the allergic edema reaction at paw. The allergy suppressing effect of the test compounds was examined with reference to the edema volumes after 30 minutes and 8 hours of the induction of the allergic reaction as the immediate and delayed allergic reactions, respectively.
[…] On the other hand, only a solution of 0.25% Tween 80 was orally administered to rats as the untreated control, and 100 mg/kg of sodium chromoglycate subcutaneously or orally to rats as the positive control.
The rate of suppressing the allergic edema reaction at paw was calculated from the following equation.
Suppression rate of the allergic edema reaction at paw
A is an average edema volume in the control, and
B is an average edema volume in the drug treated group.

[3] = 0.5 h, edema volume 30 minutes after induction, read-out: Suppressing Rate, Immediate Reaction
[4] = edema volume 8 hours after induction, read-out: Suppressing Rate, Slow reaction
[5] = 0.5 h, 30 minutes after induction, read-out: Suppressing Rate, Immediate Reaction
[6] = 8 hours after induction, read-out: Suppressing Rate, Slow reaction

Compound | IC50 [1] | also measured
O=c1[nH]c2cc(C=NO)ccc2c(=O)c2[nH]nnc12 [Example 57, 7-(hydroxyimino)methyl-4(5H),10-dioxo-1H-1,2,3-triazolo[4,5-c][l]benzazepine] | 2.4 nM | –
O=c1[nH]c2cc(OCCCOc3ccccc3)ccc2c(=O)c2[nH]nnc12 [Example 75, 4(5H),10-dioxo-7-(3-phenoxypropoxy)-IH-1,2,3-triazolo[4,5-c][l]benzazepine] | 4 nM | –
O=C(O)/C=C/c1ccc2c(=O)c3[nH]nnc3c(=O)[nH]c2c1 [Example 18] | 4.5 nM | –
O=C(/C=C/c1ccc2c(=O)c3[nH]nnc3c(=O)[nH]c2c1)NCc1ccccc1 [Example 53, 7-(2-(N-benzylcarbamoyl)-(E)-ethenyl)-4(5H),10-dioxo-1H-1,2,3-triazolo[4,5-c][l]benzazepine] | 4.4 nM | –
O=c1[nH]c2cc(CNS(=O)(=O)c3ccccc3)ccc2c(=O)c2[nH]nnc12 [Example 69, 7-(N-benzenesulfonylaminomethyl)-4(5H),10-dioxo-1H-1,2,3-triazolo [4,5-c][l]benzazepine] | 3.5 nM | inhibition in vivo at 10 mg/kg [2, 3]: 50%; inhibition in vivo at 10 mg/kg [2, 4]: 41%
COc1ccc(C(=O)COc2ccc3[nH]c(=O)c4nn[nH]c4c(=O)c3c2)cc1 [Example 84, 8-(4-methoxyphenacyloxy)-4(5H),10-dioxo-1H-1,2,3-triazolo[4,5-c][l]benzazepine] | 3.9 nM | inhibition in vivo at 10 mg/kg [2, 3]: 48%; inhibition in vivo at 10 mg/kg [2, 4]: 40%
COC(=O)/C(C)=C/c1ccc2c(=O)c3[nH]nnc3c(=O)[nH]c2c1 [Example 50] | 3.6 nM | –
Cc1ccc2[nH]c(=O)c3nn[nH]c3c(=O)c2c1 [Example 5, 8-methyl-4(5H),10-dioxo-1H-1,2,3-triazolo[4,5-c][l]benzazepine] | 13 nM | inhibition in vivo at 30 mg/kg [2, 5]: 48.7%; inhibition in vivo at 30 mg/kg [2, 6]: 28.9%
COc1ccc(C(=O)COc2ccc3c(=O)c4[nH]nnc4c(=O)[nH]c3c2)cc1 [Example 37, 7-(4-methoxyphenacyloxy)-4(5H),10-dioxo-1H-1,2,3-triazolo[4,5-c][l]benzazepine] | 7.5 nM | –
O=c1[nH]c2cc(OCCOc3ccccc3)ccc2c(=O)c2[nH]nnc12 [Example 78, 4(5H),10-dioxo-7-(2-phenoxyethoxy)-1H-1,2,3-triazolo[4,5-c][l]benzazepine] | 3.6 nM | –
COc1cc2[nH]c(=O)c3nn[nH]c3c(=O)c2cc1OC [Example 43, 7,8-dimethoxy-4(5H),10-dioxo-1H-1,2,3-triazolo[4,5-c][l]benzazepine] | 1.4 nM | inhibition in vivo at 10 mg/kg [2, 3]: 59%; inhibition in vivo at 10 mg/kg [2, 4]: 53%
CCOc1ccc2c(=O)c3[nH]nnc3c(=O)[nH]c2c1 [Example 27, 7-ethoxy-4(5H),10-dioxo-1H-1,2,3-triazolo[4,5-c][l]benzazepine] | 8.6 nM | inhibition in vivo at 10 mg/kg [2, 3]: 48%; inhibition in vivo at 10 mg/kg [2, 4]: 55%
O=c1[nH]c2cc(OCCCN3CCN(Cc4ccccc4)CC3)ccc2c(=O)c2[nH]nnc12 [Example 81, 7-(3-(4-benzyl-1-piperazinyl)propoxy)-4(5H),10-dioxo-1H-1,2,3-triazolo[4,5-c][l]benzazepine] | 3.8 nM | –
Cc1cc2[nH]c(=O)c3nn[nH]c3c(=O)c2cc1C [Example 44, 7,8-dimethyl-4(5H),10-dioxo-1H-1,2,3-triazolo[4,5-c][l]benzazepine] | 8.5 nM | –
CC(=O)/C=C/c1ccc2c(=O)c3[nH]nnc3c(=O)[nH]c2c1 [Example 20, 7-(3-oxo-(E)-butenyl)-4(5H),10-dioxo-1H-1,2,3-triazolo[4,5-c][l]benzazepine] | 2.9 nM | inhibition in vivo at 10 mg/kg [2, 3]: 63%; inhibition in vivo at 10 mg/kg [2, 4]: 51%
O=C(COc1ccc2c(=O)c3[nH]nnc3c(=O)[nH]c2c1)c1ccc(Cl)cc1 [Example 74, 7-(4-chlorophenacyloxy)-4(5H),10-dioxo-1H-1,2,3-triazolo[4,5-c][l]benzazepine] | 4.5 nM | –

Compound | IC50 [1] | also measured
COC(=O)CCc1ccc2c(=O)c3[nH]nnc3c(=O)[nH]c2c1 [Example 17, 7-(2-methoxycarbonylethyl)-4(5H),10-dioxo-1H-1,2,3-triazolo[4,5-c][l]benzazepine] | 4.1 nM | –
COc1ccccc1C(=O)COc1ccc2c(=O)c3[nH]nnc3c(=O)[nH]c2c1 [Example 73, 7-(2-methoxyphenacyloxy)-4(5H),10-dioxo-1H-1,2,3-triazolo[4,5-c][l]benzazepine] | 4.8 nM | –
O=c1[nH]c2ccccc2c(=O)c2[nH]nnc12 [Example 1, 4(5H),10-dioxo-1H-1,2,3-triazolo[4,5-c][l]benzazepine] | 12 nM | inhibition in vivo at 30 mg/kg [2, 5]: 56.4%; inhibition in vivo at 30 mg/kg [2, 6]: 24.5%
O=c1[nH]c2cc(CNS(=O)(=O)c3ccc(F)cc3)ccc2c(=O)c2[nH]nnc12 [Example 70, 7-(N-(4-fluorobenzenesulfonyl)aminomethyl)-4(5H),10-dioxo-1H-1,2,3-triazolo[4,5-c][l]benzazepine] | 6.1 nM | –
COc1ccccc1C(=O)COc1ccc2[nH]c(=O)c3nn[nH]c3c(=O)c2c1 [Example 87, 8-(2-methoxyphenacyloxy)-4(5H),10-dioxo-1H-1,2,3-triazolo[4,5-c][l]benzazepine] | 7.4 nM | –
COc1ccc(C(=O)/C=C/c2ccc3c(=O)c4[nH]nnc4c(=O)[nH]c3c2)cc1 [Example 51, 7-(2-(4-methoxybenzoyl)-(E)-ethenyl)-4(5H1), 10-dioxo-1H-1,2,3-triazolo[4,5-c][l]benzazepine] | 7.8 nM | –
O=C(/C=C/c1ccc2c(=O)c3[nH]nnc3c(=O)[nH]c2c1)Nc1nn[nH]n1 [Example 56, 4(5H),10-dioxo-7-(2-(N-(1H-tetrazol-5-yl)carbamoyl)-(E)-ethenyl)-1H-1,2,3-triazolo[4,5-c][l]benzazepine] | 4.7 nM | –
N#CC=Cc1ccc2c(=O)c3[nH]nnc3c(=O)[nH]c2c1 (mixture of isomers) [Example 19, 3:1 mixture of 7-(2-cyano-(E)-ethenyl)-4(5H),10-dioxo-1H-1,2,3-triazolo[4,5-c][l]benzazepine and 7-(2-cyano-(Z)-ethenyl)-4(5H),10-dioxo-1H-1,2,3-triazolo[4,5-c][l]benzazepine] | 4.3 nM | –
CON=Cc1ccc2c(=O)c3[nH]nnc3c(=O)[nH]c2c1 [Example 58, 7-(methoxyimino)methyl-4(5H),10-dioxo-1H-1,2,3-triazolo[4,5-c][l]benzazepine] | 8.1 nM | –
O=C(CCc1ccccc1)COc1ccc2c(=O)c3[nH]nnc3c(=O)[nH]c2c1 [Example 79, 4(5H),10-dioxo-7-(2-oxo-4-phenylbutoxy)-1H-1,2,3-triazolo[4,5-c][l]benzazepine] | 3.6 nM | –
Cc1ccc2c(=O)c3[nH]nnc3c(=O)[nH]c2c1 [Example 46, 7-methyl-4(5H),10-dioxo-1H-1,2,3-triazolo[4,5-c][l]benzazepine] | – | inhibition in vivo at 10 mg/kg [2, 3]: 64%; inhibition in vivo at 10 mg/kg [2, 4]: 68%
CS(=O)(=O)NCc1ccc2c(=O)c3[nH]nnc3c(=O)[nH]c2c1 [Example 68, 7-(N-methanesulfonylaminomethyl)-4(5H),10-dioxo-1H-1,2,3-triazolo[4,5-c][l]benzazepine] | 3.5 nM | –
CC(=O)COc1ccc2c(=O)c3[nH]nnc3c(=O)[nH]c2c1 [Example 34, 7-acetonyloxy-4(5H),10-dioxo-1H-1,2,3-triazolo[4,5-c][l]benzazepine] | 3.5 nM | –
O=c1[nH]c2cc(OCC(O)CCc3ccccc3)ccc2c(=O)c2[nH]nnc12 (centres unmarked) [Example 80, 7-(2-hydroxy-4-phenylbutoxy)-4(5H),10-dioxo-1H-1,2,3-triazolo[4,5-c][l]benzazepine] | 4.7 nM | –
O=C(/C=C/c1ccc2c(=O)c3[nH]nnc3c(=O)[nH]c2c1)NCc1ccccn1 [Example 54, 4(5H),10-dioxo-7-(2-(N-(2-pyridylmethyl)carbamoyl)-(E)-ethenyl)-1H-1,2,3-triazolo[4,5-c][l]benzazepine] | 3.6 nM | –
COc1cc2c(=O)c3[nH]nnc3c(=O)[nH]c2cc1C [Example 45, 8-methoxy-7-methyl-4(5H),10-dioxo-1H-1,2,3-triazolo[4,5-c][l]benzazepine] | 2.9 nM | –
